Assay results: EP0326329B1, “Quinazoline derivatives useful as insecticides” (Dow AgroSciences LLC, priority 1988, dated 1989)

Columns and labels:
Type in all cases: in vivo
[1] = system: Twospotted spider mites (Tetranychus urticae Koch); assay: Mite/insect screen, sprayed squash cotyledons (SM); conditions: Tetranychus urticae, percent mortality, read-out: SM RESULTS %; for mortality at 200 ppm: spray rate 200 ppm; for mortality at 400 ppm: spray rate 400 ppm
How it was run: (§1)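 Water-diluted formulations of each compound (acetone/alcohol 50:50 with 23 g/L and 13 g/L emulsifier blends) are sprayed over both leaf faces to runoff. After a standard exposure period, percent kill and phytotoxicity are recorded.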

[2] = system: southern armyworm (Spodopetra eridania Cramer); assay: Mite/insect screen, sprayed squash leaves (SAW); conditions: percent mortality; for mortality at 200 ppm / mortality at 400 ppm: Spodoptera eridania, read-out: SAW RESULTS %; for mortality at 400 ppm: spray rate 400 ppm
How it was run: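 Compounds were dissolved in 50:50 acetone/alcohol containing sulfonate/nonionic emulsifier blends (23 g and 13 g per liter) and diluted with water to test concentrations. Leaves were sprayed on both surfaces to runoff and dried for one hour. Percent mortality and phytotoxicity were scored after standard exposure periods.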

[3] = system: Erysiphe graminis tritici (powdery mildew); assay: Greenhouse Test 1, foliar spray fungicide screen (POWD MDEW), host wheat; conditions: disease control rating, 400 ppm (+++ at 100 ppm)
[4] = system: Pyricularia oryzae (rice blast); conditions: disease control rating, foliar spray, host rice; 400 ppm (+++ at 100 ppm)
[5] = system: Southern corn rootworm (Diabrotica undecimpuctata howardi Barber); assay: Mite/insect screen, soil treatment (CRW); conditions: percent mortality, soil treatment; for mortality at 12 ppm / mortality at 24 ppm: Diabrotica, read-out: CRW RESULTS %; for mortality at 24 ppm: CRW rate 24.00 ppm
How it was run: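 Compounds dissolved in acetone/alcohol (50:50) with Toximul R/S emulsifiers, diluted with water. Soil (15 g, with presoaked corn seed) treated with 1 mL test solution, dried 6–12 h, then five 2–3 instar larvae added; held at 23°C. Percent mortality and phytotoxicity scored after standard exposure periods.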

[6] = system: Puccinia recondita tritici (leaf rust); assay: Greenhouse Test 1, foliar spray fungicide screen (LEAF RUST), host wheat; conditions: disease control rating, 400 ppm (+++ at 100 ppm)
[7] = system: Pseudoperonospora cubensis (downy mildew); assay: Greenhouse Test 1, foliar spray fungicide screen (DOWN MDEW), host squash; conditions: disease control rating, 400 ppm (+++ at 100 ppm)
[8] = system: melon aphids (Aphis gossypii Glover); assay: Mite/insect screen, sprayed squash cotyledons (MA); conditions: Aphis gossypii, percent mortality, read-out: MA RESULTS %; for mortality at 200 ppm: spray rate 200 ppm; for mortality at 400 ppm: spray rate 400 ppm
How it was run: as §1

[9] = system: Botrytis cinerea (gray mold); assay: Greenhouse Test 1, foliar spray fungicide screen (GRAY MOLD), host grape berries; conditions: disease control rating, 400 ppm (+++ at 100 ppm)

SMILES | mortality at 200 ppm [1] [%] | mortality at 400 ppm [1] [%] | mortality at 200 ppm ([2]; spray rate 200 ppm) [%] | mortality at 400 ppm [2] [%] | POWD MDEW [3] | RICE BLAST [4] | mortality at 12 ppm ([5]; CRW rate 12.00 ppm) [%] | mortality at 24 ppm [5] [%] | LEAF RUST [6] | DOWN MDEW [7] | mortality at 200 ppm [8] [%] | mortality at 400 ppm [8] [%] | GRAY MOLD [9] | SAW RESULTS % ([2]; spray rate 200 ppm) [%] | CRW RESULTS % ([5]; CRW rate 12.00 ppm) [%]
C=CC(CCOc1ncnc2ccccc12)CCc1ccccc1 (centres unmarked) [Example 130, 4-[3-ethenyl-5-phenyl-pentyloxy]quinazoline] | 80 | 70 | 0 | 0 | + (+ = 20-89% control at 400 ppm) | - (- = 0-19% control at 400 ppm) | 0 | 0 | - (- = 0-19% control at 400 ppm) | - (- = 0-19% control at 400 ppm) | 80 | 100 | - (- = 0-19% control at 400 ppm) | – | –
COc1ccccc1CCOc1ncnc2c(F)cccc12 [Example 131, 8-fluoro-4-[2-(2-methoxyphenyl)ethoxy]quinazoline] | – | 0 | – | 0 | +++ (+++ = 90-100% control at 100 ppm) | +++ (+++ = 90-100% control at 100 ppm) | – | 0 | +++ (+++ = 90-100% control at 100 ppm) | +++ (+++ = 90-100% control at 100 ppm) | – | 0 | - (- = 0-19% control at 400 ppm) | – | –
COc1ccc(CCOc2ncnc3c(F)cccc23)cc1 [Example 132, 8-fluoro-4-[2-(4-methoxyphenyl)ethoxy]quinazoline] | 20 | 0 | 0 | 0 | +++ (+++ = 90-100% control at 100 ppm) | +++ (+++ = 90-100% control at 100 ppm) | 0 | 0 | +++ (+++ = 90-100% control at 100 ppm) | +++ (+++ = 90-100% control at 100 ppm) | 80 | 0 | - (- = 0-19% control at 400 ppm) | – | –
Fc1cccc2c(OCCc3cccc(C(F)(F)F)c3)ncnc12 [Example 133, 8-fluoro-4-[2-[3-(trifluoromethyl)phenyl]ethoxy]quinazoline] | – | 100 | 0 | 0 | +++ (+++ = 90-100% control at 100 ppm) | +++ (+++ = 90-100% control at 100 ppm) | 0 | 100 | +++ (+++ = 90-100% control at 100 ppm) | + (+ = 20-89% control at 400 ppm) | – | 100 | - (- = 0-19% control at 400 ppm) | 0 | 0
CC(C)c1ccccc1CCOc1ncnc2ccccc12 [Example 135, 4-[2-[2-(1-methylethyl)phenyl]ethoxy]quinazoline] | 0 | 0 | 0 | 0 | +++ (+++ = 90-100% control at 100 ppm) | +++ (+++ = 90-100% control at 100 ppm) | 0 | 0 | +++ (+++ = 90-100% control at 100 ppm) | +++ (+++ = 90-100% control at 100 ppm) | 0 | 0 | - (- = 0-19% control at 400 ppm) | – | –
CC(C)(C)c1ccc(CCOc2ncnc3cc(Cl)ccc23)cc1 [Example 136, 7-chloro-4-[2-[4-(1,1-dimethylethyl)phenyl]ethoxy]quinazoline] | 0 | 0 | 100 | 0 | - (- = 0-19% control at 400 ppm) | - (- = 0-19% control at 400 ppm) | 0 | 0 | - (- = 0-19% control at 400 ppm) | - (- = 0-19% control at 400 ppm) | 0 | 0 | - (- = 0-19% control at 400 ppm) | – | –
c1ccc(Sc2cccc(CCOc3ncnc4ccccc34)c2)cc1 [Example 137, 4-[2-[3-(phenylthio)phenyl]ethoxy]quinazoline] | 0 | 0 | 0 | 0 | +++ (+++ = 90-100% control at 100 ppm) | +++ (+++ = 90-100% control at 100 ppm) | 0 | 100 | +++ (+++ = 90-100% control at 100 ppm) | +++ (+++ = 90-100% control at 100 ppm) | 60 | 0 | - (- = 0-19% control at 400 ppm) | – | –
CC(C)(C)c1ccc(CCCOc2ncnc3ccccc23)cc1 [Example 138, 4-[3-[4-(1,1-dimethylethyl)phenyl]propoxy]quinazoline] | 0 | 80 | 0 | 0 | ++ (++ = 90-100% control at 400 ppm) | + (+ = 20-89% control at 400 ppm) | 0 | 0 | - (- = 0-19% control at 400 ppm) | ++ (++ = 90-100% control at 400 ppm) | 30 | 60 | - (- = 0-19% control at 400 ppm) | – | –
Cc1cccc2c(OCCc3ccc(C(C)(C)C)cc3)ncnc12 [Example 139, 8-methyl-4-[2-[4-(1,1-dimethylethyl)phenyl]ethoxy]quinazoline] | – | 100 | 0 | 0 | + (+ = 20-89% control at 400 ppm) | +++ (+++ = 90-100% control at 100 ppm) | 0 | 0 | + (+ = 20-89% control at 400 ppm) | ++ (++ = 90-100% control at 400 ppm) | 30 | 0 | - (- = 0-19% control at 400 ppm) | – | –
CC(C)(C)c1ccc(CCCNc2ncnc3ccc(Cl)cc23)cc1 [Example 140, 6-chloro-N-(3-[4-(1,1-dimethylethyl)phenyl]propyl]-4-quinazoline] | 0 | 80 | 0 | 0 | + (+ = 20-89% control at 400 ppm) | ++ (++ = 90-100% control at 400 ppm) | 0 | 0 | + (+ = 20-89% control at 400 ppm) | ++ (++ = 90-100% control at 400 ppm) | 0 | 0 | - (- = 0-19% control at 400 ppm) | – | –
Fc1cccc2c(OCCc3cccc4ccccc34)ncnc12 [Example 141, 8-fluoro-4-[2-(1-naphthalenyl)ethoxy]quinazoline] | – | 0 | – | 0 | + (+ = 20-89% control at 400 ppm) | + (+ = 20-89% control at 400 ppm) | – | 0 | + (+ = 20-89% control at 400 ppm) | + (+ = 20-89% control at 400 ppm) | – | 0 | - (- = 0-19% control at 400 ppm) | – | –
